Patent publication US12435112B2, “Adenovirus comprising a modified adenovirus hexon protein” (UNIVERSITÄT ULM, priority 2019, dated 2025)

Test system: MSCs
Experiment: Transduction of MSCs with or without enhancing molecules
Format: cell-based, human
Conditions: enhancer pre-incubated with adenovirus
Experimental: Transduction of MSCs by HAdV5 or HAdV5-Mut3, with or without Enhancing Molecules
MSCs were seeded in 1 mL PL-containing BioWhittaker® Alpha minimum essential medium (Lonza) in 24-well plates. The next day, the indicated viral vector particles were pre-incubated with or without enhancing molecules for 30 minutes at 37° C. in a total volume of 300 μL in PL-free medium. As enhancing molecules, Factor X (250-2000 ng/mL), Spermidine (1-625 ng/μL), Spermine (1-1000 ng/μL), Polybrene (0.08-81 μg/μL), Poly-L-Lysine (1-25% v/v) and Lactoferrin (1-1000 μg/mL) were used. Subsequently, MSCs were washed and 500 μL PL-free medium was provided. Cells were transduced by adding 300 μL of the pre-incubated viral particles (resulting in the indicated pMOI) and incubated for 2 hours at 37° C. Afterwards, cells were washed, and 1 mL of PL-containing medium was added. 72 hours after transduction, MSCs were detached and eGFP expression was analyzed by flow cytometry.
Amount of Enhancers Used for Pre-Incubation of HAdV5:
Transduction of MSCs by HAdV5, HAdV5-Mut3, HAdV5-ΔCAR-Mut3, HAdV5-ΔHVR1 or HAdV5-Mut2
Transduction of MSCs with a pMOI of 1000 was performed as described in section “Transduction of MSCs by HAdV5 or HAdV5-Mut3, with or without enhancing molecules”, except that MSCs were detached and eGFP expression was analyzed by flow cytometry 24 hours after transduction. No enhancing molecules were used.

SMILES	enhanced transduction of MSCs with adenoviruses by transduction enhancer
NCCCCNCCCN [Spermidine]	most pronounced
NCCCNCCCCNCCCN [Spermine]	most pronounced
